Tests used:
[1] = tested on: four clinical isolates of MRSA; assay: aPDI with CFL irradiation, summary over MRSA isolates; assay type: cell-based, Staphylococcus aureus
Experimental: In all cases, we observed potent aPDI with bactericidal activities at 1-5 μM (Table 1). The consistent response to Ga-PpIX treatment is encouraging, as variable efficacy between strains is a known problem in antimicrobial photodynamic therapy (Nakonieczna, J. et al., Photodiagn. Photodyn. Ther. 2012, 9, 359-361). […] We note that PpIX is already approved as a photosensitizer for topical treatment of several skin diseases, but its utility is limited by poor photostability.
A 20-W compact fluorescent lightbulb (CFL; Sunlite SL20/BLB) housed in an ellipsoidal reflector dome was used for aPDI, at an emission wavelength at 406 nm and a mean power density of 12.4 mW/cm^2 (after applying a 408-nm shortpass filter). Antimicrobial assays were performed on planktonic bacteria at 10^7 cfu/mL with variable exposure times to CFL irradiation, followed by plating on agar and incubation at 37° C. In a typical experiment, bacterial suspensions were transferred into 96-well plates then treated with 100-μL aliquots of Ga-PpIX or PpIX solution, with final concentrations ranging from 320 to 0.31 μg/mL, followed immediately with CFL irradiation for 5 to 15 minutes. […] Bacterial counts were determined by the drop-plate method using TS-agar plates, and reported in colony-forming units per milliliter (cfu/mL).

HEK cells = assay: Cytotoxicity against HEK cells; details: read-out: IC50 (cytotoxicity)
[2] = Rish et al. 2007; cited from earlier work
[3] = Photophysical measurements (absorption, fluorescence quantum yield); assay type: physicochemical
From the text: Hemin chloride and all reagents were obtained from commercial sources, and used as received unless otherwise noted. Dimethyl sulfoxide (DMSO) was distilled over CaH2 under reduced pressure. Deionized water was obtained from an ultrafiltration system (Milli-Q, Millipore) with a resistivity >18 MΩ·cm, and passed through a 0.22-μm filter to remove particulate matter. Absorption spectra were collected on a Varian Cary50 spectrometer; fluorescence emission data were collected on a Cary Eclipse fluorimeter with a gate time of 5 ms. ^1H NMR spectra were obtained in CDCl3 or DMSO-d6 using a Varian 800-MHz spectrometer; all chemical shifts (δ) reported in ppm.
The quantum yield of Ga-PpIX in deaerated DMSO was determined to be 6.3%, using Ru(II)(bipy)3Cl2 in aerated acetonitrile as a standard.

S. aureus = assay: aPDI with 405-nm LED bar, summary over strains; assay type: cell-based, Staphylococcus aureus; details: 10 seconds, 405-nm light-emitting diode bar (99 mW/cm^2), fluence about 1 J/cm^2
Experimental: Antibacterial activity assay general protocol: Used LED light to test conditions. Bacteria were grown in TS broth, followed by 3 mM bipyridine in TS broth until log phase. Bacteria were then diluted with PBS, to OD 0.1 (˜10^) and then to ˜10^7 cfu/mL. 100 uL of bacteria were placed in 96 well plates with the appropriate GaPpIX concentration. 2× serial dilutions were then done to obtain other GaPpIX concentrations. Each concentration was done in triplicate. Bacteria were left incubating and irradiating for different amount of times at different light powers or left in the dark. 10× Serial dilutions were done and bacteria were plated for colony counting using the drop-plate technique. Colonies were counted after 24 hours. As reported herein, a 3-log reduction equals measurable antimicrobial action; a 6-log reduction equals total eradication.

MRSA385 = assay: Antibacterial activity assay with LED light; assay type: cell-based, Staphylococcus aureus
MRSA387 = assay: Antibacterial activity assay with LED light; assay type: cell-based, Staphylococcus aureus
[4] = tested on: S. aureus and clinical isolates of MRSA; assay: aPDI with CFL irradiation, summary over strains; assay type: cell-based, Staphylococcus aureus; details: 15 minutes of irradiation, compact fluorescence lightbulb (λmax 406 nm, 12.4 mW/cm^2)
Experimental: A 20-W compact fluorescent lightbulb (CFL; Sunlite SL20/BLB) housed in an ellipsoidal reflector dome was used for aPDI, at an emission wavelength at 406 nm and a mean power density of 12.4 mW/cm^2 (after applying a 408-nm shortpass filter). Antimicrobial assays were performed on planktonic bacteria at 10^7 cfu/mL with variable exposure times to CFL irradiation, followed by plating on agar and incubation at 37° C. In a typical experiment, bacterial suspensions were transferred into 96-well plates then treated with 100-μL aliquots of Ga-PpIX or PpIX solution, with final concentrations ranging from 320 to 0.31 μg/mL, followed immediately with CFL irradiation for 5 to 15 minutes. The irradiated bacteria were plated onto agar in serial tenfold dilutions (10^7-10^1 cfu/mL); controls included one set of wells without photosensitizer, and one set of wells with photosensitizer but without 15 min irradiation, prior to plating (dark toxicity). Bacterial counts were determined by the drop-plate method using TS-agar plates, and reported in colony-forming units per milliliter (cfu/mL).

CSHR-expressing bacteria = assay: Bacterial uptake of GaPpIX, time to saturation; assay type: cell-based
Experimental: Bacteria were cultured and assayed in iron-deficient media unless otherwise noted. A stock solution of Ga-PpIX (14.6 μM) was prepared by dispersing 5 mg in 1 mL of 10% DMSO in PBS for 10 minutes in an ultrasonic cleaning bath protected from light, followed by filtration and 10× dilution in PBS just prior to use. Bacterial suspensions (0.5 mL) were treated with freshly prepared solutions of PpIX derivatives for specified periods (5-15 min), then harvested by centrifugation at 5.2 g for 5 minutes, redispersed twice in 0.5 mL deionized water, and centrifuged a third time. A 10-μL aliquot of concentrated bacteria was deposited onto a glass slide and dried in air for 20 min, then imaged by fluorescence microscopy as described above. For details on fluorescence image processing and quantitative analysis, see Supporting Information.
Darkfield and fluorescent images were acquired in succession, with the former used to map regions of interest (ROIs) by tracing the outlines of bacteria (FIG. 8). Three images were acquired for each sample; in each case, the tracing map was overlaid onto the fluorescence image to calculate pixel intensities within each ROI, using the mean pixel intensity for quantitative analysis. […]

Ga(III)-protoporphyrin [Ga-PpIX (1)]
bactericidal activities (aPDI) [1]: 1 to 5 µM
IC50 (HEK cells): > 10 µM
molar extinction coefficient, previous reports [2]: 250000 M⁻¹ cm⁻¹
molar extinction coefficient ε ([3]; DMSO, λmax=410 nm, 0.4-10 μM): 154000 M⁻¹ cm⁻¹
fluorescence quantum yield ([3]; deaerated DMSO, Ru(II)(bipy)3Cl2 in aerated acetonitrile as standard): 6.3%
GaPpIX concentration showing aPDI efficacy (S. aureus): 0.06 to 0.12 µM
concentration for 3-log reduction (MRSA385): 89 nM
concentration for 6-log reduction (MRSA385): 470 nM
concentration for 3-log reduction (MRSA387): 59 nM
concentration for 6-log reduction (MRSA387): 1900 nM
GaPpIX concentration for 3-log reduction by aPDI [4]: 0.5-4.5 μM
time to saturation of uptake (CSHR-expressing bacteria): under 15 minutes

Reference: US10722582B2, “Targeted antimicrobial photodynamic therapy” (Purdue Research Foundation, priority 2018, dated 2020)
